We go through 15 molecules from patent US12594349B2, “Compositions and methods for the targeting of PCSK9” (Scribe Therapeutics Inc., priority 2022, dated 2026).

Where two headings read alike, the source gives them in different places.

One data set concerns human PCSK9 locus. The experiment in a line: Secreted PCSK9 by ELISA in Huh7 cells transfected with mRNA and gRNA. It is filed as cell-based. To be noted: for Secreted PCSK9 / Percent reduction in PCSK9 secretion / Average percent reduction in PCSK9 secretion: Huh7 cells; for Secreted PCSK9: 6 days post-transfection, normalized to total cell count; for Percent reduction in PCSK9 secretion / Average percent reduction in PCSK9 secretion: LTRP5-ADD-ZIM3 mRNA; for Percent reduction in PCSK9 secretion: day 6, relative to non-targeting gRNA control; for Average percent reduction in PCSK9 secretion: day 6, averaged from the two doses. The protocol: To assess PCSK9 secretion, seeded Huh7 cells were transfected with mRNA encoding a catalytically-active CasX 676, dXR1, or LTRP5-ADD-ZIM3 and a gRNA with scaffold 316 and spacer targeting either the B2M or PCSK9 locus. Media supernatant was harvested at 6, 18, 36, and 87 days post-transfection to assess level of PCSK9 secretion by ELISA. Levels of PCSK9 secretion were normalized to total cell count. As an additional control, PCSK9 secretion was also measured in the media supernatant harvested from wells containing untreated, naïve cells.
The following three human hepatocyte cancer cell lines were used in this experiment: HepG2 cells, Hep3B cells, and Huh7 cells. ˜15,000 cells of each cell line were seeded per well; the next day, seeded cells were transfected with mRNA encoding a catalytically-active CasX 676, dXR1, or LTRP5-ADD-ZIM3 and a gRNA with scaffold 316 and spacer targeting either the B2M or PCSK9 locus (see Table 23 for specific spacers and sequences). Media supernatant was harvested at 4 days post-transfection to assess level of PCSK9 secretion by ELISA, and levels of PCSK9 secretion were normalized to total cell count and illustrated in FIGS. 11A-11C. Culturing of treated Huh7 cells continued, and media supernatant was harvested at 14 and 27 days post-transfection for measuring PCSK9 secretion by ELISA. As an additional experimental control, PCSK9 secretion was also measured in the media supernatant harvested from wells containing untreated, naïve cells.
To assess PCSK9 secretion, seeded Huh7 cells were co-transfected with mRNA encoding for LTRP5-ADD-ZIM3 and a gRNA with scaffold 316 and spacer targeting the PCSK9 locus using Lipofectamine™ 3000. Two doses of total RNA input at a 2:1 mass ratio of mRNA to gRNA were used for screening: 50 ng mRNA:25 ng gRNA and 25 ng mRNA:12.5 ng gRNA. Media supernatant was harvested at 6 days post-transfection to assess level of PCSK9 secretion by ELISA (Table 74). Levels of PCSK9 secretion were normalized to total cell count. As an additional control, PCSK9 secretion was also measured in the media supernatant harvested from cells transfected with mRNA encoding for mScarlet.
On the technique in general: ELISA stands for enzyme-linked immunosorbent assay.

A further data set has as its system Huh7 cells. The experiment in a line: RNA-seq, differentially regulated off-target genes in transfected Huh7 cells. It is filed as cell-based, human. To be noted: Huh7, 6 and 26 days post-transfection, |log2FC|>2 and adjusted p-value<0.001. The text has this:
(§1) Seeded Huh7 cells were transfected with mRNA encoding a catalytically-active CasX 676, dXR1, or LTRP5-ADD-ZIM3 and a gRNA with scaffold 316 and a spacer targeting the PCSK9 locus. Cells were harvested at 6 and 26 days post-transfection and subsequently lysed and stored in DNA/RNA Shield (Zymo Research). As an additional control, untreated, naïve cells were also harvested. The collected samples were subjected to gDNA/RNA extraction using the Quick-DNA/RNA Miniprep Plus kit (Zymo Research). RNA samples were used for total RNA sequencing (RNA-seq), which was performed by a third-party. Raw FASTQ files were received and processed with FASTQC, and adapters were trimmed using Trim Galore. Transcript expression was then quantified against the hg38 genome using Salmon to generate normalized counts for each gene (transcripts per million, or TPM). Differential expression analysis was performed using DESeq2. Genes with fewer than 10 counts in all samples were omitted from analysis, and all pairwise comparisons (e.g., differential gene expression analyses between untreated and treated conditions at the two individual timepoints) were done with significance thresholds of |log 2FC|>2 and adjusted p-value<0.001.

The test system of the next data set is PCSK9 locus. Nature of the data set: RNA-seq, normalized PCSK9 read counts in transfected Huh7 cells. To be noted: Huh7, mRNA + gRNA scaffold 316 v1, 6 and 26 days post-transfection. It is filed as cell-based, human.
Source text: as §1

The test system of the next data set is HBEGF. It is filed as cell-based, human. As to conditions: for log 2(fold change) of abundance before and after selection: HEK293T, dCasX491 fusion, scaffold 174 spacer 34.28, 2 ng/mL diphtheria toxin for 48 hours.
For another data set, the system named is B2M locus. It counts as cell-based. As to conditions: for B2M repression compared with LTRP5-ZIM3: HEK293T, LTRP5 constructs without ADD domain, scaffold 316 spacer 7.165, days 6/7 to 26/27; for % HLA-negative cells (mean): HEK293T cells, gRNA with B2M-targeting spacer 7.37.
Where [1] appears, read: LTRP5-ADD-ZIM3 mRNA + gRNA scaffold 316, 25 ng mRNA:12.5 ng gRNA.
Setting [2] is: LTRP5-ADD-ZIM3 mRNA + gRNA scaffold 316, 50 ng mRNA:25 ng gRNA.

In the case of “TG-06-133 (guide AUGGUAGGCACAAGCUCAGC; listed as RNA, chemistry not given here)”, the “Secreted PCSK9” value in the data set with human PCSK9 locus (setting [1]) is recorded as 42.13 ng/mL; in the data set with human PCSK9 locus (setting [2]), 29.45 ng/mL. Also, the results for the “Percent reduction in PCSK9 secretion” value in the data set on human PCSK9 locus (25 ng mRNA:12.5 ng gRNA) and with human PCSK9 locus (50 ng mRNA:25 ng gRNA) were 40.86% and 64.21%, respectively. In addition, the “Average percent reduction in PCSK9 secretion” value (from here on “Average percent reduction”) in the data set with human PCSK9 locus is recorded as 52.53%. The “differentially regulated off-target genes” value in the data set with Huh7 cells is recorded as “lowest number of differentially regulated off-target genes”. In addition, in the data set on PCSK9 locus, the “PCSK9 expression by RNA-seq” value is on record as “durably repress PCSK9 expression”.

In the case of “TG-06-154 (guide AGGGUGUGGGUGCUUGACGC; listed as RNA, chemistry not given here)”, the “Secreted PCSK9” value in the data set on human PCSK9 locus (setting [1]) amounted to 24.48 ng/mL; with human PCSK9 locus (setting [2]), 6.87 ng/mL. Besides, the “Percent reduction in PCSK9 secretion” value with human PCSK9 locus (25 ng mRNA:12.5 ng gRNA) worked out at 65.64%; with human PCSK9 locus (50 ng mRNA:25 ng gRNA), 91.65%. The “Average percent reduction” value in the data set with human PCSK9 locus came to 78.64%. Also, the “differentially regulated off-target genes” value in the data set on Huh7 cells is “higher number of differentially regulated off-target genes”. Further, the “PCSK9 expression by RNA-seq” value with PCSK9 locus is recorded as “durably repress PCSK9 expression”.

Turning to “TG-06-169 (guide CGGGGUUGGGAGACCCGGAG; listed as RNA, chemistry not given here)”, the results for the “Secreted PCSK9” value with human PCSK9 locus (setting [1]) and in the data set with human PCSK9 locus (setting [2]) were 62.55 ng/mL and 66.39 ng/mL, respectively. For the same molecule, the “Percent reduction in PCSK9 secretion” value worked out at 12.2% in the data set on human PCSK9 locus (25 ng mRNA:12.5 ng gRNA) and 19.3% in the data set with human PCSK9 locus (50 ng mRNA:25 ng gRNA). Further, the “Average percent reduction” value with human PCSK9 locus is reported as 15.75%.

With “TG-06-170 (guide UCGGCCUCCGGGUCUCCCAA; listed as RNA, chemistry not given here)”, the “Secreted PCSK9” value in the data set with human PCSK9 locus (setting [1]) is on record as 72.96 ng/mL; in the data set on human PCSK9 locus (setting [2]) it was 64.19 ng/mL. Moreover, the “Percent reduction in PCSK9 secretion” value was 2.41% with human PCSK9 locus (25 ng mRNA:12.5 ng gRNA) and 21.98% with human PCSK9 locus (50 ng mRNA:25 ng gRNA). Also, in the data set with human PCSK9 locus, the “Average percent reduction” value turned out to be 9.79%.

In the case of “TG-06-171 (guide CAGUACGUUCCAGGCAUUCA; listed as RNA, chemistry not given here)”, the “Secreted PCSK9” value in the data set with human PCSK9 locus (setting [1]) stood at 55.95 ng/mL; in the data set with human PCSK9 locus (setting [2]), 52.41 ng/mL. Besides, the “Percent reduction in PCSK9 secretion” value worked out at 21.46% with human PCSK9 locus (25 ng mRNA:12.5 ng gRNA) and 36.3% in the data set on human PCSK9 locus (50 ng mRNA:25 ng gRNA). Further, in the data set with human PCSK9 locus, the “Average percent reduction” value came out at 28.88%.

On to “TG-06-172 (guide GCUGAAACAGAUGGAAUACU; listed as RNA, chemistry not given here)”, for which the “Secreted PCSK9” value with human PCSK9 locus (setting [1]) was found to be 59.31 ng/mL; with human PCSK9 locus (setting [2]) it was 44.44 ng/mL. In addition, the entries for the “Percent reduction in PCSK9 secretion” value in the data set with human PCSK9 locus (25 ng mRNA:12.5 ng gRNA) and in the data set on human PCSK9 locus (50 ng mRNA:25 ng gRNA) were 16.75% and 45.99%, respectively. In addition, the “Average percent reduction” value with human PCSK9 locus was 31.37%.

Take “TG-06-342 (guide AAUUACAGGCAACAGGAAGG; listed as RNA, chemistry not given here)”: the “Percent reduction in PCSK9 secretion” value with human PCSK9 locus (25 ng mRNA:12.5 ng gRNA) was 5.6%.

With “TG-06-344 (guide CAGUUUCUGCCUCGCCGCGG; listed as RNA, chemistry not given here)”, the “Percent reduction in PCSK9 secretion” value with human PCSK9 locus (50 ng mRNA:25 ng gRNA) is listed as 0.01%.

“TG-06-352 (guide UCCCUCACCAAUUACCCCUC; listed as RNA, chemistry not given here)”: the “secreted PCSK9 repression compared with spacer 6.1 paired with CasX 676” value with human PCSK9 locus (Huh7, LTRP5-ADD-ZIM3 mRNA + gRNA scaffold 316, through day 36) was “effective repression”.

On to “TG-06-1046 (guide UCUCUUACAUGGGGGGAAAC; listed as RNA, chemistry not given here)”, for which the “Percent reduction in PCSK9 secretion” value in the data set on human PCSK9 locus (50 ng mRNA:25 ng gRNA) came to 4.1%.

As to “ZIM3: human ZIM3 KRAB domain, SEQ ID NO: 128 [reference compound]”, the “log 2(fold change) of abundance before and after selection” value (“log 2(fold change) … after selection” below) with HBEGF was determined as 1.7787.

Regarding “standard ZNF10: human ZNF10 KRAB domain, SEQ ID NO: 129 [reference compound]”, the “log 2(fold change) … after selection” value in the data set on HBEGF was determined as 1.3637.

B1: DOMAIN_29304: one of the top nine most effective repressor domains (protein, listed as Peromyscus maniculatus)
chain: VTYNDVHVDITQEEWALMDPSQRNLYKDVMVETYMNLTAIGYNWENLEVEEPCQNPLKHGRHERPHTGEKPYEYNQCGKAFAQP
In the case of B1, the “B2M repression compared with LTRP5-ZIM3” value with B2M locus was “most effective”. The “Log2 (fold change)” value in the data set on HBEGF (fold change in abundance of each domain in the library before and after diphtheria toxin selection, dXR repression of the HBEGF gene, criteria p-value <0.01 and log2(fold change) >2) is recorded as 4.0496.

B2: DOMAIN_26749: repressor domain derived from the king cobra, Ophiophagus hannah; SEQ ID NO: 135 (protein)
chain: STPVTFEDVVVYFTAAEWVHLTNWQRDFYQAVMMETYELVASVAGDGVPMAEDEEGGVERPVWQYIPRGKRRRKTPQPRAD
modifications: Ophiophagus hannah
On to B2, for which the “B2M repression compared with LTRP5-ZIM3” value with B2M locus is listed as “most effective”. Also, in the data set on HBEGF, the “log 2(fold change) … after selection” value is “highest log 2 (fold change)”.

B3: dCasX491: catalytically-dead CasX variant, SEQ ID NO: 4 (protein)
chain: QEIKRINKIRRRLVKDSNTKKAGKTGPMKTLLVRVMTPDLRERLENLRKKPENIPQPISNTSRANLNKLLTDYTEMKKAILHVYWEEFQKDPVGLMSRVAQPASKKIDQNKLKPEMDEKGNLTTAGFACSQCGQPLFVYKLEQVSEKGKAYTNYFGRCNVAEHEKLILLAQLKPEKDSDEAVTYSLGKFGQRALDFYSIHVTKESTHPVKPLAQIAGNRYASGPVGKALSDACMGTIASFLSKYQDIIIEHQKVVKGNQKRLESLRELAGKENLEYPSVTLPPQPHTKEGVDAYNEVIARVRMWVNLNLWQKLKLSRDDAKPLLRLKGFPSFPLVERQANEVDWWDMVCNVKKLINEKKEDGKVFWQNLAGYKRQEALRPYLSSEEDRKKGKKFARYQLGDLLLHLEKKHGEDWGKVYDEAWERIDKKVEGLSKHIKLEEERRSEDAQSKAALTDWLRAKASFVIEGLKEADKDEFCRCELKLQKWYGDLRGKPFAIEAENSILDISGFSKQYNCAFIWQKDGVKKLNLYLIINYFKGGKLRFKKIKPEAFEANRFYTVINKKSGEIVPMEVNFNFDDPNLIILPLAFGKRQGREFIWNDLLSLETGSLKLANGRVIEKTLYNRRTRQDEPALFVALTFERREVLDSSNIKPMNLIGVARGENIPAVIALTDPEGCPLSRFKDSLGNPTHILRIGESYKEKQRTIQAKKEVEQRRAGGYSRKYASKAKNLADDMVRNTARDLLYYAVTQDAMLIFANLSRGFGRQGKRTFMAERQYTRMEDWLTAKLAYEGLSKTYLSKTLAQYTSKTCSNCGFTITSADYDRVLEKLKKTATGWMTTINGKELKVEGQITYYNRYKRQNVVKDLSVELDRLSEESVNNDISSWTKGRSGEALSLLKKRFSHRPVQEKFVCLNCGFETHAAEQAALNIARSWLFLRSQEYKKYQTNKTTGNTDKRAFVETWQSFYRKKLKEVWKPAV
For B3, the “% HLA-negative cells (mean)” value amounted to 0.49% with B2M locus (50 days post-transfection) and 0.83% in the data set with B2M locus (73 days post-transfection).
